Laboratory results taken from patent US12187713B2, “Immunomodulators, compositions and methods thereof” (Betta Pharmaceuticals Co., Ltd, priority 2019, dated 2025).

Target: PD-1/PD-L1 (Homo sapiens (Human), UniProt Q9NZQ7)
Test: PD-1/PD-L1 Binding Assay (Alphascreen)
Details: numeric values
In short: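 PD-1/PD-L1 binding detected by anti-6×His acceptor and streptavidin donor beads after 120 min in the dark at 25 °C. Beforehand, the two proteins were incubated 15 min at 25 °C with inhibitor at 0.015–300 nM (1% DMSO). IC50 comes from a log concentration–response curve.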

PD-1/PD-L1, sequence (Q9NZQ7 19-238): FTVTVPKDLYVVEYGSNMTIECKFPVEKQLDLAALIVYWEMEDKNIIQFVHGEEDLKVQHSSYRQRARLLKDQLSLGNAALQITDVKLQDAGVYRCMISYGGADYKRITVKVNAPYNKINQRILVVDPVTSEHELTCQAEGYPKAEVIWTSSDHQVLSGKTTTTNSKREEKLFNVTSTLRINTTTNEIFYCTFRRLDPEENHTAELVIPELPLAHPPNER

SMILES	IC50 [nM]
Cc1c(-c2nc3c(o2)CCN(CC(=O)O)C3)cccc1-c1cccc(-c2nc3cc(CN4CCC[C@H]4C(=O)O)c(OC(F)F)cc3o2)c1C [Example 184, ((2-(3′-(5-(carboxymethyl)-4,5,6,7-tetrahydrooxazolo[4,5-c]pyridin-2-yl)-2,2′-dimethyl-[1,1′-biphenyl]-3-yl)-6-(difluoromethoxy)benzo[d]oxazol-5-yl)methyl)-L-proline]	2.3

Same assay, conditions: range symbols

SMILES	IC50 [nM]
Cc1c(Nc2nccc3cc(CN4CCC(O)C4)cnc23)cccc1-c1cccc(-c2nc3cc(CN4CC[C@H](C(=O)O)C4)c(OC(F)F)cc3o2)c1C (stereo partly drawn) [Example 180, (3S)-1-((6-(difluoromethoxy)-2-(3′-((3-((3-hydroxypyrrolidin-1-yl)methyl)-1,7-naphthyridin-8-yl)amino)-2,2′-dimethyl-[1,1′-biphenyl]-3-yl)benzo[d]oxazol-5-yl)methyl)pyrrolidine-3-carboxylic acid]	0.1 to 5
Cc1c(Nc2nccc3cc(CN4CCC(O)C4)cnc23)cccc1-c1cccc(-c2nc3cc(CN4CC[C@@H](C(=O)O)C4)c(OC(F)F)cc3o2)c1C (stereo partly drawn) [Example 181, (3R)-1-((6-(difluoromethoxy)-2-(3′-((3-((3-hydroxypyrrolidin-1-yl)methyl)-1,7-naphthyridin-8-yl)amino)-2,2′-dimethyl-[1,1′-biphenyl]-3-yl)benzo[d]oxazol-5-yl)methyl)pyrrolidine-3-carboxylic acid]	0.1 to 5
Cc1c(Nc2nccc3cc(CN4CCC(O)C4)cnc23)cccc1-c1cccc(-c2nc3cc(CN4CCC[C@@H]4C(=O)O)c(OC(F)F)cc3o2)c1C (stereo partly drawn) [Example 182, ((6-(difluoromethoxy)-2-(3′-((3-((3-hydroxypyrrolidin-1-yl)methyl)-1,7-naphthyridin-8-yl)amino)-2,2′-dimethyl-[1,1′-biphenyl]-3-yl)benzo[d]oxazol-5-yl)methyl)-D-proline]	0.1 to 5
Cc1c(Nc2cc(CN3CCCC3)ccn2)cccc1-c1cccc(-c2nc3cc(OC(F)F)c(CN4CCC[C@H]4C(=O)O)cc3o2)c1C [Example 183, ((5-(difluoromethoxy)-2-(2,2′-dimethyl-3′-((4-(pyrrolidin-1-ylmethyl)pyridin-2-yl)amino)-[1,1′-biphenyl]-3-yl)benzo[d]oxazol-6-yl)methyl)-L-proline]	5 to 50
Cc1c(-c2nc3c(o2)CCN(CCS(C)(=O)=O)C3)cccc1-c1cccc(-c2nc3cc(CN4CCC[C@H]4C(=O)O)c(OC(F)F)cc3o2)c1C [Example 185, ((6-(difluoromethoxy)-2-(2,2′-dimethyl-3′-(5-(2-(methylsulfonyl)ethyl)-4,5,6,7-tetrahydrooxazolo[4,5-c]pyridin-2-yl)-[1,1′-biphenyl]-3-yl)benzo[d]oxazol-5-yl)methyl)-L-proline]	0.1 to 5
Cc1c(-c2nc3c(o2)CCN(C(C)C(=O)O)C3)cccc1-c1cccc(-c2nc3cc(CN4CCC[C@H]4C(=O)O)c(OC(F)F)cc3o2)c1C (stereo partly drawn) [Example 186, ((2-(3′-(5-(1-carboxyethyl)-4,5,6,7-tetrahydrooxazolo[4,5-c]pyridin-2-yl)-2,2′-dimethyl-[1,1′-biphenyl]-3-yl)-6-(difluoromethoxy)benzo[d]oxazol-5-yl)methyl)-L-proline]	0.1 to 5
Cc1c(-c2nc3c(o2)CCN(CCC(=O)O)C3)cccc1-c1cccc(-c2nc3cc(CN4CCC[C@H]4C(=O)O)c(OC(F)F)cc3o2)c1C [Example 187, ((2-(3′-(5-(2-carboxyethyl)-4,5,6,7-tetrahydrooxazolo[4,5-c]pyridin-2-yl)-2,2′-dimethyl-[1,1′-biphenyl]-3-yl)-6-(difluoromethoxy)benzo[d]oxazol-5-yl)methyl)-L-proline]	0.1 to 5
Cc1c(-c2nc3c(o2)CN(C)CC3)cccc1-c1cccc(-c2nc3cc(CN4CCC[C@H]4C(=O)O)c(OC(F)F)cc3o2)c1C [Example 188, ((6-(difluoromethoxy)-2-(2,2′-dimethyl-3′-(5-methyl-4,5,6,7-tetrahydrooxazolo[5,4-c]pyridin-2-yl)-[1,1′-biphenyl]-3-yl)benzo[d]oxazol-5-yl)methyl)-L-proline]	0.1 to 5
